The assay addresses T1, partially purified C. tropicalis TISTR 5350 pyruvate decarboxylase (PDC) (Candida tropicalis, UniProt C5MDS4).
T1 construct: gene CTRG_03826
The experiment in a line: global fit of six-ODE model to batch PAC biotransformation progress curves (HPLC, enzymatic pyruvate assay). In kind it is biochemical. The following applies: carboligation with benzaldehyde (30/36 and 100/120 mM benzaldehyde/pyruvate); 250 mM phosphate pH 7.0, 4 °C, 1 mM TPP, 1 mM MgSO4; partially purified enzyme; model-fitted affinity constant; sigmoidal. An excerpt: global fit of six-ODE model to batch PAC biotransformation progress curves (HPLC, enzymatic pyruvate assay) on partially purified C. tropicalis TISTR 5350 pyruvate decarboxylase (PDC)

T1 sequence (C5MDS4 entry or part of it): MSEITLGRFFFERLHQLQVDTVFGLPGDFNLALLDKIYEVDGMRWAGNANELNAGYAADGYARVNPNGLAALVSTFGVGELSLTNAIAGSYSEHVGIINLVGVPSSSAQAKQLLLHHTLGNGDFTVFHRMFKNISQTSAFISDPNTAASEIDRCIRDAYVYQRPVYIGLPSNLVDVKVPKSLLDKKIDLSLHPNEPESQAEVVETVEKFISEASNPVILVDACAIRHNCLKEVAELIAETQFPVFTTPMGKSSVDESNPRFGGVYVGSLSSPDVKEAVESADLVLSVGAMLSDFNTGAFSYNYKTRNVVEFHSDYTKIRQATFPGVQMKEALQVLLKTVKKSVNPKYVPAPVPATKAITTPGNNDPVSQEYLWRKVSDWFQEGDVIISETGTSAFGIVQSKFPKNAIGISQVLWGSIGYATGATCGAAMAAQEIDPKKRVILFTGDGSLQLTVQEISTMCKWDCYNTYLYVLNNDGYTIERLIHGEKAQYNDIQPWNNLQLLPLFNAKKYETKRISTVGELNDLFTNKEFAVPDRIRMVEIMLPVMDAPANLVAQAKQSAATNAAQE

As to `O=Cc1ccccc1` [B, benzaldehyde], the Optimized values entry is recorded as “(1.01 ± 0.02) × 10^–4 mM^1−h”.
